Results: patent US20040092402A1, “Pyrimidine derivatives and herbicides containing the same” (priority 2000, published 2004)
“And” between values parts separate entries of the source, which are not always exact repeats. Equal entries are not always repeated.

With `COc1cc(-c2ncnc(C(F)(F)F)c2Cl)c(F)cc1Cl` [A-1, 5-chloro-4-(4-chloro-2-fluoro-5-methoxyphenyl)-6-trifluoromethylpyrimidine] the melting point was 112 to 113 °C and 109 to 111 °C. Work on `C#CCOc1cc(-c2ncnc(C(F)(F)F)c2Cl)c(F)cc1Cl` [A-3, 5-Chloro-4-(4-chloro-2-fluoro-5-propargyloxyphenyl)-6-trifluoromethylpyrimidine] yielded a melting point of 112 to 113 °C. In the case of `CCS(=O)(=O)Nc1cc(-c2ncnc(C(F)(F)F)c2Cl)c(F)cc1C#N` [A-16, 5-chloro-4-[4-cyano-5-(N-ethanesulfonylamino)-2-fluorophenyl]-6-trifluoromethylpyrimidine], the melting point was 188 to 189 °C and 191 to 194 °C. `CCS(=O)(=O)N(C(C)=O)c1cc(-c2ncnc(C(F)(F)F)c2Cl)c(F)cc1C#N` [A-23, 4-[5-(N-acetyl-N-ethanesulfonylamino)-4-cyano-2-fluorophenyl]-5-chloro-6-trifluoromethylpyrimidine] showed a melting point of 144 to 146 °C. With `C=CCOc1cc(-c2ncnc(C(F)F)c2Cl)c(F)cc1Cl` [D-2, 4-(5-Allyloxy-4-chloro-2-fluorophenyl)-5-chloro-6-difluoromethylpyrimidine] the melting point was 69 to 71 °C and 67 to 71 °C. `Fc1cc(Cl)c(OC(F)F)cc1-c1ncnc(C(F)F)c1Cl` [D-7, 5-Chloro-4-[4-chloro-2-fluoro-5-(difluoromethoxy)phenyl]-6-difluoromethylpyrimidine] showed a melting point of 56 to 57 °C. `CCS(=O)(=O)Nc1cc(-c2ncnc(C(F)F)c2Cl)c(F)cc1Cl` [D-14, 5-Chloro-4-(4-chloro-5-ethylsulfonylamino-2-fluoro-phenyl)-6-difluoromethylpyrimidine] gave a melting point of 138 to 139 °C. `CCS(=O)(=O)Nc1cc(-c2ncnc(C(F)F)c2Cl)c(Cl)cc1Cl` [D-16, 5-Chloro-4-(2,4-dichloro-5-ethylsulfonylaminophenyl)-6-difluoromethylpyrimidine] gave a melting point of 140 to 142 °C. Work on `CC(=O)Nc1cc(-c2ncnc(C(F)F)c2Cl)c(F)cc1C#N` [D-21, 4-(5-Acetylamino-4-cyano-2-fluorophenyl)-5-chloro-6-difluoromethylpyrimidine] yielded a melting point of 160 to 162 °C. `CCS(=O)(=O)Nc1cc(-c2ncnc(C(F)F)c2Cl)c(F)cc1C#N` [D-26, 5-Chloro-4-[4-cyano-5-(ethylsulfonylamino)-2-fluoro-phenyl]-6-difluoromethylpyrimidine] gave a melting point of 200 to 202 °C. With `CCS(=O)(=O)N(C(C)=O)c1cc(-c2ncnc(C(F)F)c2Cl)c(F)cc1C#N` [D-27, 4-[5-(N-acetyl-N-ethylsulfonylamino)-4-cyano-2-fluorophenyl]-5-chloro-6-difluoromethylpyrimidine] the melting point was 121 to 122 °C. Compound `COC(=O)c1cc(-c2ncnc(C(F)F)c2Cl)c(F)cc1Cl` [D-41, 2-Chloro-4-fluoro-5-(5-chloro-6-difluoromethyl-pyrimidin-4-yl)benzoic acid methyl ester] has a melting point of 100 to 101 °C. In the case of `C#CCSc1cc(-c2ncnc(C(F)F)c2Cl)c(F)cc1Cl` [D-48, 5-Chloro-4-(4-chloro-2-fluoro-5-propargylthio-phenyl)-6-difluoromethylpyrimidine], the melting point was 95 to 97 °C. For `CC(C)NS(=O)(=O)c1cc(-c2ncnc(C(F)F)c2Cl)c(F)cc1Cl` [D-50, 2-Chloro-5-(5-chloro-6-difluoromethylpyrimidin-4-yl)-4-fluoro-N-isopropylbenzenesulfonamide], the melting point was 172 to 175 °C. `Cc1ncnc(-c2ccc(Cl)cc2F)c1Cl` [E-1, 4-(4-Chloro-2-fluorophenyl)-5-chloro-6-methyl-pyrimidine] gave a melting point of 77 to 79 °C. Work on `CCS(=O)(=O)Nc1cc(-c2ncnc(C)c2Cl)c(F)cc1C#N` [E-10, 5-Chloro-4-[4-cyano-5-(ethylsulfonylamino)-2-fluoro-phenyl]-6-methylpyrimidine] yielded a melting point of 182 to 184 °C. With `CCS(=O)(=O)Nc1cc(-c2ncnc(C(C)C)c2Cl)c(F)cc1C#N` [E-13, 5-Chloro-4-[4-cyano-5-(ethylsulfonylamino)-2-fluoro-phenyl]-6-isopropylpyrimidine] the melting point was 160 to 162 °C. Work on `C#CCOc1cc(-c2ncnc(C(Cl)Cl)c2Cl)c(F)cc1Cl` [E-19, 5-Chloro-4-(4-chloro-2-fluoro-5-propargyloxyphenyl)-6-dichloromethylpyrimidine] yielded a melting point of 86 to 88 °C. In the case of `COc1cc(-c2ncnc(OC)c2Cl)c(F)cc1Cl` [H-1, 5-Chloro-4-(4-chloro-2-fluoro-5-methoxyphenyl)-6-methoxypyrimidine], the melting point was 142 to 143 °C. Work on `CCS(=O)(=O)Nc1cc(-c2ncnc(OC)c2Cl)c(F)cc1C#N` [H-7, 5-Chloro-4-[4-cyano-5-(ethylsulfonylamino)-2-fluorophenyl]-6-methoxypyrimidine] yielded a melting point of 149 to 150 °C. With `CCS(=O)(=O)Nc1cc(-c2ncnc(Cl)c2Cl)c(F)cc1C#N` [H-16, 4,5-Dichloro-6-[4-cyano-5-(ethylsulfonylamino)-2-fluorophenyl]pyrimidine] the melting point was 149 to 150 °C. Compound `CCS(=O)(=O)Nc1cc(C2(NC)NC=NC=C2Cl)c(F)cc1C#N` (stereo not shown) [H-20, 5-Chloro-6-[4-cyano-5-(ethylsulfonylamino)-2-fluoro-phenyl]-6-methylaminopyrimidine] has a melting point of 211 to 212 °C. Work on `CCS(=O)(=O)Nc1cc(-c2ncnc(NOC)c2Cl)c(F)cc1C#N` [H-27, 5-Chloro-4-[4-cyano-5-(ethylsulfonylamino)-2-fluoro-phenyl]-6-methoxyaminopyrimidine] yielded a melting point of 188 to 189 °C. Work on `COC1(F)C=C(Cl)C=CC1c1ncnc(C)c1C` (stereo not shown) [J-1, 4-(4-Chloro-2-fluoro-2-methoxyphenyl)-5,6-dimethyl-pyrimidine] yielded a melting point of 156 to 157 °C. Compound `C#CCOc1cc(-c2ncnc(C)c2C)c(F)cc1Cl` [J-3, 4-(4-Chloro-2-fluoro-5-propargyloxyphenyl)-5,6-dimethyl pyrimidine] has a melting point of 131 to 133 °C. For `COc1cc(-c2ncnc(C(F)(F)F)c2C)c(F)cc1Cl` [J-5, 4-(4-Chloro-2-fluoro-5-methoxyphenyl)-5-methyl-6-trifluoromethylpyrimidine], the melting point was 144 to 146 °C. `C#CCOc1cc(-c2ncnc(C(F)(F)F)c2C)c(F)cc1Cl` [J-7, 4-(4-Chloro-2-fluoro-5-propargyloxyphenyl)-5-methyl-6-trifluoromethylpyrimidine] showed a melting point of 90 to 92 °C. With `CCS(=O)(=O)N(C(C)=O)c1cc(-c2ncnc(C(F)F)c2Cl)c(F)cc1C#N` [J-14, 4-[5-(N-acetyl-N-ethylsulfonylamino)-4-cyano-2-fluorophenyl]-5-chloro-6-difluoromethylpyrimidine] the melting point was 123 to 124 °C. Compound `COc1ncnc(-c2cc(NS(C)(=O)=O)c(C#N)cc2F)c1C` [J-16, 4-(4-cyano-5-methylsulfonylamino-2-fluorophenyl)-6-methoxy-5-methylpyrimidine] has a melting point of 218 to 220 °C. `COc1cc(-c2ncnc(OC)c2C#N)c(F)cc1Cl` [K-1, 4-(4-Chloro-2-fluoro-5-methoxyphenyl)-5-cyano-6-methoxypyrimidine] gave a melting point of 183 to 185 °C. `CCS(=O)(=O)Nc1cc(-c2ncnc(OC)c2C#N)c(F)cc1C#N` [K-3, 4-(4-Cyano-5-ethylsulfonylamino-2-fluorophenyl)-5-cyano-6-methoxypyrimidine] gave a melting point of 187 to 189 °C. In the case of `COC(=O)c1cc(-c2ncnc(C)c2C#N)c(F)cc1Cl` [K-19, Methyl 2-chloro-5-(5-cyano-6-methylpyrimidin-4-yl)-4-fluorobenzoate], the melting point was 142 to 144 °C. Compound `COc1ncnc(-c2cc(NS(C)(=O)=O)c(Cl)cc2Cl)c1C#N` [K-20, 4-(2,4-Dichloro-5-methylsulfonylaminophenyl)-5-cyano-6-methoxypyrimidine] has a melting point of 160 to 162 °C. In the case of `COc1cc(-c2ncnc(OC)c2C=O)c(F)cc1Cl` [L-1, 4-(4-Chloro-2-fluoro-5-methoxyphenyl)-5-formyl-6-methoxypyrimidine], the melting point was 161 to 163 °C.
